Like-named read-outs stand apart in the source and are kept apart here.
Columns and labels:
[1] = target: [^3 H]Spiroperidol Binding (Rattus norvegicus, UniProt P61169); experiment: Inhibition of [^3 H]Spiroperidol Binding, receptor assay
[2] = test system: Brain Dopamine Synthesis in Rats; experiment: % Reversal of Brain Dopamine Synthesis in Rats; type: in vivo; details: Rattus norvegicus, IP
[3] = test system: Locomotor Activity in Mice; experiment: Inhibition of Locomotor Activity in Mice; type: in vivo; details: Mus musculus, IP

Sequence of [^3 H]Spiroperidol Binding (P61169 whole entry): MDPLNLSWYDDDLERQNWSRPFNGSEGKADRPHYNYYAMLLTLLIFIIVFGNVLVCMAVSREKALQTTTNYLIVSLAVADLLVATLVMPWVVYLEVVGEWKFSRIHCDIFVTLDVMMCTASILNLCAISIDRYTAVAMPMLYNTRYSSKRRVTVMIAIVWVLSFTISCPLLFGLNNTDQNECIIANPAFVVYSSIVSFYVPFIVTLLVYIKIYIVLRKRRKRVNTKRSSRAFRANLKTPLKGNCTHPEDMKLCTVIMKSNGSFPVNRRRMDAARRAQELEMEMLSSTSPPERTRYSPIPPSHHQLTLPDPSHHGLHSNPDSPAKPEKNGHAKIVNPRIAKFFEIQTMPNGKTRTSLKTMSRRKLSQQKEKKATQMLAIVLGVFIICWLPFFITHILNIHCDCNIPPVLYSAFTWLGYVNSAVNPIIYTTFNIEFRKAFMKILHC

SMILES: C(#Cc1cnc2ccccc2c1)CCN1CC=C(c2ccccc2)CC1 [Example 1, 3-[4-(3,6-Dihydro-4-phenyl-1(2H)-pyridinyl)-1-butynyl]quinoline]
- IC50 [1]: 41 nM
- inhibition in vivo at 10 mg/kg [2]: 28%

SMILES: C(#Cc1cncc2ccccc12)CCN1CC=C(c2ccccc2)CC1 [Example 2, 4-[4-(3,6-Dihydro-4-phenyl-1(2H)-pyridinyl)-1-butynyl]isoquinoline]
- IC50 [1]: 101 nM
- inhibition in vivo at 10 mg/kg [2]: 32%
- ED50 [3]: 2.1 mg/kg

SMILES: C(#Cc1cccnc1)CCN1CC=C(c2cccs2)CC1 [Example 3, 3-[4-[3,6-Dihydro-4-(2-thienyl)-1(2H)-pyridinyl]-1-butynyl]pyridine]
- IC50 [1]: 354 nM
- inhibition in vivo at 10 mg/kg [2]: 53%
- ED50 [3]: 0.54 mg/kg

SMILES: C(#Cc1cccnc1)CCN1CC=C(c2ccccc2)CC1 [Example 4, 3-[4-(3,6-Dihydro-4-phenyl-1(2H)-pyridinyl)-1-butynyl]pyridine]
- IC50 [1]: 50 nM
- inhibition in vivo at 10 mg/kg [2]: 79%
- ED50 [3]: 0.07 mg/kg

SMILES: C(#Cc1cnc2ccccc2c1)CCCN1CC=C(c2ccccc2)CC1 [Example 6, 3-[5-(3,6-Dihydro-4-phenyl-1(2H)-pyridinyl)-1-pentynyl]quinoline]
- ED50 [3]: 3.6 mg/kg

SMILES: C(#Cc1cccnc1)CCCN1CC=C(c2ccccc2)CC1 [Example 7, 3-[5-(3,6-Dihydro-4-phenyl-1(2H)-pyridinyl)-1-pentynyl]pyridine]
- IC50 [1]: 77.2 nM
- inhibition in vivo at 10 mg/kg [2]: 48%
- ED50 [3]: 0.72 mg/kg

SMILES: C(#Cc1cccnc1)CCCN1CC=C(c2cccs2)CC1 [Example 8, 3-[5-[3,6-Dihydro-4-(2-thienyl)-1(2H)-pyridinyl]-1-pentynyl]pyridine]
- IC50 [1]: 209 nM
- ED50 [3]: 2.7 mg/kg

SMILES: O=[N+]([O-])c1ccc(C#CCCN2CC=C(c3ccccc3)CC2)nc1 [Example 9, 1,2,3,6-Tetrahydro-1-[4-(5-nitro-2-pyridinyl)-3-butynyl]-4-phenylpyridine]
- IC50 [1]: 229 nM
- ED50 [3]: 6.9 mg/kg

SMILES: O=[N+]([O-])c1ccc(C#CCCN2CC=C(c3ccccc3)CC2)cc1 [Example 10, 1,2,3,6-Tetrahydro-1-[4-(4-nitrophenyl)-3-butynyl]-4-phenylpyridine]
- IC50 [1]: 394 nM
- inhibition in vivo at 10 mg/kg [2]: 42%
- ED50 [3]: 2.6 mg/kg

SMILES: C(#Cc1ccncc1)CCN1CC=C(c2ccccc2)CC1 [Example 11, 4-[4-(3,6-Dihydro-4-phenyl-1(2H)-pyridinyl)-1-butynyl]pyridine]
- IC50 [1]: 43.4 nM
- inhibition in vivo at 10 mg/kg [2]: 79%
- ED50 [3]: 0.1 mg/kg

SMILES: Nc1ccc(C#CCCN2CC=C(c3cccs3)CC2)nc1 [Example 12, 6-[4-[3,6-Dihydro-4-(2-thienyl)-1(2H)-pyridinyl]-1-butynyl]-3-pyridinamine]
- IC50 [1]: 321 nM
- inhibition in vivo at 10 mg/kg [2]: 46%
- ED50 [3]: 0.36 mg/kg

SMILES: CN(C)c1ccc(C#CCCN2CC=C(c3ccccc3)CC2)nc1 [Example 13, 6-[4-(3,6-Dihydro-4-phenyl-1(2H)-pyridinyl)-1-butynyl]-N,N-dimethyl-3-pyridinamine]
- IC50 [1]: 192 nM
- inhibition in vivo at 10 mg/kg [2]: 49%
- ED50 [3]: 0.28 mg/kg

SMILES: C(#Cc1ccccn1)CCN1CC=C(c2ccccc2)CC1 [Example 14, 1,2,3,6-Tetrahydro-4-phenyl-1-[4-(2-pyridinyl)-3-butynyl]pyridine]
- IC50 [1]: 189 nM
- inhibition in vivo at 10 mg/kg [2]: 23%
- ED50 [3]: 2.1 mg/kg

SMILES: C(#Cc1ccc2[nH]ccc2c1)CCN1CC=C(c2ccccc2)CC1 [Example 15, 5-[4-(3,6-Dihydro-4-phenyl-1(2H)-pyridinyl)-1-butynyl]-1H-indole]
- IC50 [1]: 78 nM
- ED50 [3]: 1 mg/kg

SMILES: C(#Cc1cccs1)CCN1CC=C(c2ccccc2)CC1 [Example 16, 1,2,3,6-Tetrahydro-4-phenyl-1-[4-(2-thienyl)-3-butynyl]pyridine]
- IC50 [1]: 115 nM
- ED50 [3]: 7.6 mg/kg

SMILES: Nc1ccc(C#CCCN2CC=C(c3ccc(F)cc3)CC2)cn1 [Example 17, 5-[4-[4-(4-Fluorophenyl)-3,6-dihydro-1(2H)-pyridinyl]-1-butynyl]-2-pyridinamine]
- IC50 [1]: 376 nM
- inhibition in vivo at 10 mg/kg [2]: 40%
- ED50 [3]: 1.2 mg/kg

SMILES: Nc1ccc(C#CCCN2CC=C(c3ccccc3)CC2)nc1 [Example 19, 6-[4-(3,6-Dihydro-4-phenyl-1(2H)-pyridinyl)-1-butynyl]-3-pyridinamine]
- IC50 [1]: 85 nM
- inhibition in vivo at 10 mg/kg [2]: 59%
- ED50 [3]: 0.15 mg/kg

SMILES: Nc1ccc(C#CCCN2CC=C(c3ccccc3)CC2)cc1 [Example 20, 4-[4-(3,6-Dihydro-4-phenyl-1(2H)-pyridinyl)-1-butynyl]benzenamine]
- IC50 [1]: 431 nM
- inhibition in vivo at 10 mg/kg [2]: 51%
- ED50 [3]: 0.36 mg/kg

SMILES: Nc1ccc(C#CCCN2CC=C(c3ccccc3)CC2)cn1 [Example 21, 5-[4-(3,6-Dihydro-4-phenyl-1(2H)-pyridinyl)-1-butynyl]-2-pyridinamine]
- IC50 [1]: 25 nM
- inhibition in vivo at 10 mg/kg [2]: 65%
- ED50 [3]: 0.07 mg/kg

SMILES: CC(=O)Nc1ccc(C#CCCN2CC=C(c3ccccc3)CC2)nc1 [Example 22, N-[6-[4-(3,6-Dihydro-4-phenyl-1(2H)-pyridinyl)-1-butynyl]-3-pyridinyl]acetamide]
- IC50 [1]: 70 nM
- inhibition in vivo at 10 mg/kg [2]: 5%
- ED50 [3]: 0.07 mg/kg

SMILES: O=C(Nc1ccc(C#CCCN2CC=C(c3ccccc3)CC2)nc1)c1cccs1 [Example 23, N-[6-[4-(3,6-Dihydro-4-phenyl-1(2H)-pyridinyl)-1-butynyl]-3-pyridinyl]-2-thiophenecarboxamide]
- IC50 [1]: 1090 nM
- inhibition in vivo at 10 mg/kg [2]: 0%
- ED50 [3]: 1.5 mg/kg

SMILES: CC(=O)Nc1ccc(C#CCCN2CC=C(c3ccccc3)CC2)cc1 [Example 24, N-[4-[4-(3,6-Dihydro-4-phenyl-1(2H)-pyridinyl)-1-butynyl]phenyl]acetamide]
- IC50 [1]: 50 nM
- ED50 [3]: 0.23 mg/kg

SMILES: CC(=O)Nc1ccc(C#CCCN2CC=C(c3ccccc3)CC2)cn1 [Example 25, N-[5-[4-(3,6-Dihydro-4-phenyl-1(2H)-pyridinyl)-1-butynyl]-2-pyridinyl]acetamide]
- ED50 [3]: 0.16 mg/kg

SMILES: CNc1ccc(C#CCCN2CC=C(c3ccccc3)CC2)nc1 [Example 26, 6-[4-(3,6-Dihydro-4-phenyl-1(2H)-pyridinyl)-1-butynyl]-N-methyl-3-pyridinamine]
- IC50 [1]: 138 nM
- inhibition in vivo at 10 mg/kg [2]: 0%
- ED50 [3]: 0.22 mg/kg

SMILES: CNc1ccc(C#CCCN2CC=C(c3ccccc3)CC2)cc1 [Example 27, 4-[4-(3,6-Dihydro-4-phenyl-1(2H)-pyridinyl)-1-butynyl]-N-methylbenzenamine]
- IC50 [1]: 129 nM
- inhibition in vivo at 10 mg/kg [2]: 45%
- ED50 [3]: 0.56 mg/kg

SMILES: CNc1ccc(C#CCCN2CC=C(c3ccc(F)cc3)CC2)cn1 [Example 28, 5-[4-[4-(9-Fluorophenyl)-3,6-dihydro-1(2H)-pyridinyl]-1-butynyl]-N-methyl-2-pyridinamine]
- IC50 ([1]; read-out: Inhibition of [^3 H]Spiroperidol Binding IC50, [^3 H]spiroperidol radioligand): 1270 nM
- inhibition in vivo at 10 mg/kg [2]: 57%
- ED50 [3]: 0.6 mg/kg

SMILES: CNc1ccc(C#CCCN2CC=C(c3ccccc3)CC2)cn1 [Example 29, 5-[4-(3,6-Dihydro-4-phenyl-1(2H)-pyridinyl)-1-butynyl]-N-methyl-2-pyridinamine]
- IC50 [1]: 77 nM
- inhibition in vivo at 10 mg/kg [2]: 42%
- ED50 [3]: 6.1 mg/kg

SMILES: CCCNc1ccc(C#CCCN2CC=C(c3ccccc3)CC2)nc1 [Example 30, 6-[4-(3,6-Dihydro-4-phenyl-1(2H)-pyridinyl)-1-butynyl]-N-propyl-3-pyridinamine]
- IC50 [1]: 248 nM
- ED50 [3]: 0.31 mg/kg

SMILES: CS(=O)(=O)N(c1ccc(C#CCCN2CC=C(c3ccccc3)CC2)nc1)S(C)(=O)=O [Example 31, N-(Methylsulfonyl)-N-[6-[4-(3,6-dihydro-4-phenyl-1(2H)-pyridinyl)-1-butynyl]-3-pyridinyl]methanesulfonamide]
- IC50 [1]: 94 nM
- inhibition in vivo at 10 mg/kg [2]: 0%
- ED50 [3]: 0.53 mg/kg

SMILES: CS(=O)(=O)Nc1ccc(C#CCCN2CC=C(c3ccccc3)CC2)nc1 [Example 32, N-[6-[4-(3,6-Dihydro-4-phenyl-1(2H)-pyridinyl)-1-butynyl]-3-pyridinyl]methanesulfonamide]
- IC50 [1]: 64 nM
- ED50 [3]: 1.1 mg/kg

From patent US5466698A, “Substituted tetrahydrophyridines and hydroxypiperidines as central nervous system agents” (Warner-Lambert Company, priority 1993, dated 1995)
